Laboratory results reported in ChEMBL document CHEMBL4732096, “Design, synthesis and evaluation of calix[4]arene-based carbonyl amide derivatives with antitumor activities” (Eur J Med Chem, 2021).

Tests used:
HepG2 = assay: Antiproliferative activity against human HepG2 cells assessed as inhibition of cell growth at 10 uM measured after 72 hrs by MTT assay relative to control; type: functional
HT-29 = assay: Antiproliferative activity against human HT-29 cells assessed as inhibition of cell growth at 10 uM measured after 72 hrs by MTT assay relative to control; type: functional
MDA-MB-231 [1] = assay: Antiproliferative activity against human MDA-MB-231 cells assessed as inhibition of cell growth at 10 uM measured after 72 hrs by MTT assay relative to control; type: functional
MCF7 = assay: Antiproliferative activity against human MCF7 cells assessed as inhibition of cell growth at 10 uM measured after 72 hrs by MTT assay relative to control; type: functional
A549 [2] = assay: Antiproliferative activity against human A549 cells assessed as inhibition of cell growth at 10 uM measured after 72 hrs by MTT assay relative to control; type: functional
[3] = Cytotoxicity against HUVEC cells assessed as inhibition of cell growth at 10 uM measured after 72 hrs by MTT assay; type: cell-based; conditions: human
A549 [4] = assay: Antiproliferative activity against human A549 cells assessed as inhibition of cell growth measured after 72 hrs by MTT assay; type: functional, cell-based; conditions: A549, 72 h
MDA-MB-231 [5] = assay: Antiproliferative activity against human MDA-MB-231 cells assessed as inhibition of cell growth measured after 72 hrs by MTT assay; type: functional, cell-based; conditions: MDA-MB-231, 72 h

Structure (SMILES) | IC50 (A549 [4]) [µM] | IC50 (MDA-MB-231 [5]) [µM] | inhibition at 10 µM (HepG2) [%] | inhibition at 10 µM (HT-29) [%] | inhibition at 10 µM (MDA-MB-231 [1]) [%] | inhibition at 10 µM (MCF7) [%] | inhibition at 10 µM (A549 [2]) [%] | inhibition at 72 h, 10 µM [3] [%]
CCC(Oc1c2cc(C(C)(C)C)cc1Cc1cc(C(C)(C)C)cc(c1O)Cc1cc(C(C)(C)C)cc(c1OC(CC)C(=O)NCCCCCO)Cc1cc(C(C)(C)C)cc(c1O)C2)C(=O)NCCCCCO (stereo not given) | 3.78 | 1.36 | 9.3 | 26.3 | 63.7 | < 0 | 52.7 | < 0
CCC(Oc1c2cc(C(C)(C)C)cc1Cc1cc(C(C)(C)C)cc(c1O)Cc1cc(C(C)(C)C)cc(c1OC(CC)C(=O)NCCO)Cc1cc(C(C)(C)C)cc(c1O)C2)C(=O)NCCO (stereo not given) | 2.22 | 0.92 | 26.1 | 32.1 | 79.6 | < 0 | 68.7 | 34.3
CC(Oc1c2cc(C(C)(C)C)cc1Cc1cc(C(C)(C)C)cc(c1O)Cc1cc(C(C)(C)C)cc(c1OC(C)C(=O)NCCCCCO)Cc1cc(C(C)(C)C)cc(c1O)C2)C(=O)NCCCCCO (stereo not given) | 2.98 | 3.26 | 19.8 | 49.6 | 89.3 | < 0 | 86.8 | 31.8
CC(C)(C)c1cc2c(O)c(c1)Cc1cc(C(C)(C)C)cc(c1OC/C=C/C(=O)NCCO)Cc1cc(C(C)(C)C)cc(c1O)Cc1cc(C(C)(C)C)cc(c1OC/C=C/C(=O)NCCO)C2 | 6.29 | 5.46 | 19.8 | 27.8 | 35 | 38 | 63.5 | 8.9
CC(C)(C)c1cc2c(O)c(c1)Cc1cc(C(C)(C)C)cc(c1OCCCC(=O)N(CCO)CCO)Cc1cc(C(C)(C)C)cc(c1O)Cc1cc(C(C)(C)C)cc(c1OCCCC(=O)N(CCO)CCO)C2 | 3.81 | 5.81 | 62.8 | 61.5 | 80 | 60.1 | 88.1 | < 0
CC(C)(C)c1cc2c(O)c(c1)Cc1cc(C(C)(C)C)cc(c1OC/C=C/C(=O)NCCCCCO)Cc1cc(C(C)(C)C)cc(c1O)Cc1cc(C(C)(C)C)cc(c1OC/C=C/C(=O)NCCCCCO)C2 | > 100 | 94.3 | 11.8 | 23.9 | 39.5 | < 0 | 37.6 | 23.8
CC(C)(C)c1cc2c(O)c(c1)Cc1cc(C(C)(C)C)cc(c1OCCCCCC(=O)N(CCO)CCO)Cc1cc(C(C)(C)C)cc(c1O)Cc1cc(C(C)(C)C)cc(c1OCCCCCC(=O)N(CCO)CCO)C2 | > 100 | > 100 | 17.3 | 22.2 | 34.5 | 1.44 | 46.8 | < 0
CC(C)(C)c1cc2c(O)c(c1)Cc1cc(C(C)(C)C)cc(c1OC/C=C/C(=O)N(CCO)CCO)Cc1cc(C(C)(C)C)cc(c1O)Cc1cc(C(C)(C)C)cc(c1OC/C=C/C(=O)N(CCO)CCO)C2 | 7.04 | 6.77 | 41 | 39.8 | 58.8 | 80.2 | 82 | < 0
CC(Oc1c2cc(C(C)(C)C)cc1Cc1cc(C(C)(C)C)cc(c1O)Cc1cc(C(C)(C)C)cc(c1OC(C)C(=O)N(CCO)CCO)Cc1cc(C(C)(C)C)cc(c1O)C2)C(=O)N(CCO)CCO (stereo not given) | 3.75 | 1.63 | 93.8 | 65.7 | 91.3 | 96.2 | 91.2 | 57.2
CCC(Oc1c2cc(C(C)(C)C)cc1Cc1cc(C(C)(C)C)cc(c1O)Cc1cc(C(C)(C)C)cc(c1OC(CC)C(=O)NCCCO)Cc1cc(C(C)(C)C)cc(c1O)C2)C(=O)NCCCO (stereo not given) | 0.96 | 0.85 | 20.3 | 41.5 | 80.1 | < 0 | 80.2 | < 0
CC(Oc1c2cc(C(C)(C)C)cc1Cc1cc(C(C)(C)C)cc(c1O)Cc1cc(C(C)(C)C)cc(c1OC(C)C(=O)NCCO)Cc1cc(C(C)(C)C)cc(c1O)C2)C(=O)NCCO (stereo not given) | 2.5 | 1.18 | 67.9 | 47.3 | 89.2 | 76.8 | 91.8 | 35.7
CC(Oc1c2cc(C(C)(C)C)cc1Cc1cc(C(C)(C)C)cc(c1O)Cc1cc(C(C)(C)C)cc(c1OC(C)C(=O)NCCCO)Cc1cc(C(C)(C)C)cc(c1O)C2)C(=O)NCCCO (stereo not given) | 1.76 | 1.31 | 69 | 58.4 | 90.1 | 82.5 | 91.2 | 48.2

More lines, main results first:

IC50 (A549 [4]) [µM] | IC50 (MDA-MB-231 [5]) [µM] | Structure (SMILES) | inhibition at 10 µM (HepG2) [%] | inhibition at 10 µM (HT-29) [%] | inhibition at 10 µM (MDA-MB-231 [1]) [%] | inhibition at 10 µM (MCF7) [%] | inhibition at 10 µM (A549 [2]) [%] | inhibition at 72 h, 10 µM [3] [%]
7.64 | 9.15 | CC(C)(C)c1cc2c(O)c(c1)Cc1cc(C(C)(C)C)cc(c1OCCCC(=O)NCCCCCO)Cc1cc(C(C)(C)C)cc(c1O)Cc1cc(C(C)(C)C)cc(c1OCCCC(=O)NCCCCCO)C2 | 25 | 33.1 | 34.4 | < 0 | 50.5 | 5.8
> 100 | 97.6 | CC(C)(C)c1cc2c(O)c(c1)Cc1cc(C(C)(C)C)cc(c1OCCCCCC(=O)NCCCCCO)Cc1cc(C(C)(C)C)cc(c1O)Cc1cc(C(C)(C)C)cc(c1OCCCCCC(=O)NCCCCCO)C2 | 21.9 | 21.2 | 31.2 | < 0 | 46.1 | < 0
3.59 | 5.2 | CC(C)(C)c1cc2c(O)c(c1)Cc1cc(C(C)(C)C)cc(c1OC/C=C/C(=O)NCCCO)Cc1cc(C(C)(C)C)cc(c1O)Cc1cc(C(C)(C)C)cc(c1OC/C=C/C(=O)NCCCO)C2 | 9.5 | 36.1 | 61.5 | 48.2 | 63.3 | 38.8
10.3 | 17.9 | CC(C)(C)c1cc2c(O)c(c1)Cc1cc(C(C)(C)C)cc(c1OCCCC(=O)NCCCO)Cc1cc(C(C)(C)C)cc(c1O)Cc1cc(C(C)(C)C)cc(c1OCCCC(=O)NCCCO)C2 | 24.4 | 35.3 | 29.5 | < 0 | 56.4 | < 0
13.7 | 11.7 | CC(C)(C)c1cc2c(O)c(c1)Cc1cc(C(C)(C)C)cc(c1OCCCC(=O)NCCO)Cc1cc(C(C)(C)C)cc(c1O)Cc1cc(C(C)(C)C)cc(c1OCCCC(=O)NCCO)C2 | 28.7 | 40.1 | 25.8 | 16.2 | 54.4 | 57
3.84 | 4.53 | CC(C)(C)c1cc2c(O)c(c1)Cc1cc(C(C)(C)C)cc(c1OCC(=O)NCCO)Cc1cc(C(C)(C)C)cc(c1O)Cc1cc(C(C)(C)C)cc(c1OCC(=O)NCCO)C2 | 89.9 | 66.2 | 90.5 | 92.2 | 92.3 | 19.6
> 100 | 42.8 | CC(C)(C)c1cc2c(O)c(c1)Cc1cc(C(C)(C)C)cc(c1OCCCCCC(=O)NCCCO)Cc1cc(C(C)(C)C)cc(c1O)Cc1cc(C(C)(C)C)cc(c1OCCCCCC(=O)NCCCO)C2 | 9.3 | 17.9 | 30.1 | < 0 | 56.5 | < 0
> 100 | 13 | CC(C)(C)c1cc2c(O)c(c1)Cc1cc(C(C)(C)C)cc(c1OCCCCCC(=O)NCCO)Cc1cc(C(C)(C)C)cc(c1O)Cc1cc(C(C)(C)C)cc(c1OCCCCCC(=O)NCCO)C2 | 22.6 | 17.3 | 34.3 | < 0 | 61.6 | < 0
